± gives the expanded uncertainty stated by the source.
Experiment: activity coefficient (dimensionless); of the first substance listed, at infinite dilution; xn = mol fraction of the nth substance listed
Settings: 298 K; 101 kPa; Liquid; Chromatography; x1 = 0

Row | Compound | activity coefficient
1 | Cc1ccccc1 [toluene] + NC=O | 81 ± 8
2 | Clc1ccccc1Cl [1,2-dichlorobenzene] + NC=O | 159 ± 17
3 | Brc1ccccc1 [bromobenzene] + NC=O | 107 ± 13
4 | c1ccc(-c2ccccc2)cc1 [biphenyl] + NC=O | 1320 ± 150
5 | Clc1ccccc1 [chlorobenzene] + NC=O | 94 ± 16
6 | c1ccccc1 [benzene] + NC=O | 53 ± 6
7 | Fc1ccccc1 [fluorobenzene] + NC=O | 54 ± 6
8 | c1ccc2ccccc2c1 [naphthalene] + NC=O | 533 ± 63

Source: the NIST ThermoML archive (doi:10.1016/j.jct.2013.05.006)
